What is called melting point is the temperature of the solid-liquid transition. Molecule `COC(=O)C(=C1NCCCO1)[N+](=O)[O-]` came in with a melting point of 132 to 133 °C. With `O=c1[nH]c2ccccc2n1OCc1ccccc1` the figure was 92 to 95 °C. The value for `CCCCCCCCCCCCc1ccc(S(=O)(=O)Nc2nnc(CC(=O)O)s2)cc1` was 194 to 195 °C. Molecule `O=C1C(=CO)COc2ccc(OCc3ccccc3)cc21` showed a melting point of 82 to 85 °C. `CC(C)n1cc(-c2nc(C(N)=O)c(N)nc2-c2cc(F)cc(F)c2)ccc1=O` had a melting point of 249 °C. The value for `Cc1cc2c(s1)C(C(=O)O)CC2` (stereo not given) was 105 to 107 °C. With `COc1ccc(OC)c(C(=O)/C=C/C(=C/C(=O)O)c2ccccc2)c1` the figure was 165 °C.

With `COc1ccc(/C(C)=C/c2ccc(C(=O)OCc3ccccc3)cc2)cc1C12CC3CC(CC(C3)C1)C2`, the melting point lay in the range of 230 to 240 °C. With `O=[N+]([O-])c1cnn2cnc3ccccc3c12` the figure was 177 to 178 °C; with `CN1CCC(c2c[nH]c3ccc(N)cc23)C(F)C1` (stereo not given), 105 to 107 °C; with `Cc1cc(O)c(F)cc1[N+](=O)[O-]`, 110 to 112 °C. Regarding `O=[N+]([O-])c1cnc(Sc2cncc(Cl)n2)s1`, the melting point lay in the range of 108 to 110 °C. The value for `CCOC(=O)c1cccc2c1Cc1c-2[nH]c2ccc(Cl)cc12` was 202 to 204 °C; that for `C=CCN(C(=O)c1cnc(N2CC(C)(C)NC2=O)nc1N)c1cccc(C(F)(F)F)c1` was 187 to 188 °C. With `CCS(=O)(=O)N(C)[C@@H]1c2cc([N+](=O)[O-])ccc2OCC[C@H]1O` (relative stereo) the figure was 133 to 135 °C; with `COC(=O)C1Cc2c([nH]c3ccccc23)C(c2ccc(Cl)c(Cl)c2)N1C(=O)CCl` (stereo not given), 163 to 165 °C.

The molecule `CCOC(=O)CNc1ncccc1NC(=O)c1ccc(C)s1` registered a melting point of 112 to 115 °C. With `CCC(=O)NCC1CC12c1cc(OC)ccc1-c1ccc(OC)cc12` (stereo not given) the figure was 145 to 147 °C; with `Cc1nc2c(cc1CCCO)c(=O)c(C(=O)NCc1ccc(Cl)cc1)cn2C`, 176 to 177 °C. With `CC(=O)Nc1ccc(S(=O)(=O)N(CCCl)CCCl)cc1` the figure was 113 to 114 °C; with `COc1ccc(Cl)c(C)c1C=O`, 86 to 88 °C; with `CC(C)NC(=Nc1ccc(Cl)cc1)Nc1ncccc1OCc1c(F)cccc1F`, 112 to 113 °C. The value for `Cc1cc(C2=NN=C(C#N)Cc3cc4c(cc32)OCO4)ccc1[N+](=O)[O-]` was 211 to 214 °C. `COC(OC)C(C)NC1=Nc2ccc(Cl)cc2C(c2ccccc2Cl)=NC1` (stereo not given): the melting point lay in the range of 153 to 155 °C. With `CCOC(=O)C1=C(C)NC(C)=C(C(=O)OCC)C1c1ccccc1/C=C/C(=O)OC(CC(C)C)CC(C)C` the figure was 49 to 52 °C; with `Cc1cc(O)nc(SCC(CS(=O)(=O)c2ccc(-c3ccc(Cl)cc3)cc2)C(=O)O)n1` (stereo not given), 165 to 168 °C. With `COCCOC(=O)Nc1cccc(C)c1CCl` the figure was 100 to 102 °C; with `CN1C(=O)C=C(c2ccc3c(c2)OCO3)C1=O`, 210 to 215 °C; with `COC(=O)c1cc(C23CC4CC(CC(C4)C2)C3)c(OC)cc1F`, 82 to 88 °C. `CCSC(=N)Nc1ccc2[nH]cc(C3=CCN(C)CC3)c2c1` came in with a melting point of 77 to 79 °C.

`COC(=O)c1ccc2cc(OCc3cccc(COc4ccc5cc(C(=O)OC)ccc5c4)c3)ccc2c1`: the melting point is 177 to 178 °C. The value for `CCCCC(=O)c1ccc(OCC(=O)O)c(Cl)c1Cl` was 110 to 113 °C; that for `O=C1NC(=O)C(=Cc2ccc3c(c2)CCC(Cc2ccccc2)O3)S1` (single isomer, unassigned; (-)) was 255 °C; that for `O=C1CCCN1[C@@H]1c2ccccc2OCC[C@H]1O` (relative stereo) was 151 to 153 °C.

Take `COc1cc(NC(=O)CN2CCOCC2)c(Cl)cc1Cn1nc(-c2ccc(C(F)(F)F)cc2)oc1=O`: the melting point fell in the range of 178 to 179 °C. The value for `O=C(c1ccc(F)cc1)N1CCCC(c2nc(Oc3ccccc3)no2)C1` (stereo not given) was 96 to 100 °C; that for `COc1ccc2nc(NC(=O)C(CC3CCCC3)c3ccc(S(=O)(=O)CC(C)=O)cc3)sc2n1` (stereo not given) was 67 to 71 °C; that for `COC(=O)C1C(=O)Nc2cccc(C(F)(F)F)c2CC1c1ccccc1OC` (stereo not given) was 214 to 216 °C. `CC(C)(C)c1ccc(-c2cc3ccc(C(=O)O)cc3o2)cc1`: the melting point was 294 °C. The value for `CCCOC(=O)c1cc(NC(=O)c2ccccc2C)ccc1Cl` was 103 to 105 °C. In turn, `CC1(C)C2CC[C@@]1(N1CCOCC1)C(=O)C2` gave a melting point of 89.5 to 90.5 °C.

With `C#CC(CC(=O)O)c1ccc(OC)c(OC2CCCC2)c1` (racemic), the melting point lay in the range of 101 to 102 °C.

The molecule `c1ccc2c(c1)C[C@H]1Nc3ccccc3[C@@H]21` (relative stereo) displayed a melting point of 85 to 86 °C. With `NC(=C[N+](=O)[O-])NC1=CC2CCC1C2` (stereo not given) the figure was 128 to 132 °C; with `CC1(C)CC(N2CCCC2)c2sccc2O1` (stereo not given), 49 to 50 °C; with `Cc1ccc(C2CCN(C(=O)CCC(=O)c3ccc4c(c3)CCN(C(=O)C(F)(F)F)CC4)CC2)cc1`, 132 to 134 °C.

`CC1(O)CC(=O)OC(c2ccc(OCc3ccccc3)cc2)C1Br` (stereo not given) showed a melting point of 157 to 162 °C. The value for `CCCCCc1cc2c(nc(O)n2CCc2ccccc2)c(N)n1` was 238 to 240 °C.

As for `COc1nc2cc(Cl)c(Cl)c(C(=O)O)c2nc1OC`, the melting point was 230 to 232 °C. The value for `COc1ccc(Cn2c3ncnc4c(ncn4Cc4ccc(OC)cc4)c-3nc2=O)cc1` was 175 to 177 °C; that for `COC(=O)Cc1cccc2c1Sc1ccccc1S2` was 124 to 125 °C; that for `Oc1ccc2oc(-c3ccc(O)c(F)c3)cc2c1` was 218 to 222 °C. The value for `CC(=O)c1ccc(NC(=O)C(C)(C)C)nc1` was 113 to 115 °C; that for `COC(=O)c1cccc2c(SC(F)(F)F)c(OC)ccc12` was 93 to 94 °C.

For the molecule `CC(C)(C)[Si](OC1CCC(O)C1COC(c1ccccc1)(c1ccccc1)c1ccccc1)(c1ccccc1)c1ccccc1` (stereo not given), the melting point is 95.6 to 97 °C.

Consider `CN(C)CCc1[nH]c2ccccc2c1CSC1=NCCS1`, for which the melting point was in the range of 140 to 143 °C. With `CC(C)(C)OC(=O)C(Br)c1ccc(Cl)c(Cl)c1` (racemic) the figure was 88 °C.

Take `FC1CN(C(c2ccccc2)c2ccccc2)C1`: the melting point was in the range of 154 to 156 °C. With `COc1ccc(C(=NOC(C)=O)c2cccc(F)c2F)c(O)c1Cl` the figure was 136 to 139 °C; with `COC(=O)COCc1cc(C(C)(C)C)c(O)c(C(C)(C)C)c1`, 132 to 133 °C. Molecule `NC(=O)c1ccc(Cl)c2c1C=C([N+](=O)[O-])CO2` came in with a melting point of 225 to 227 °C. `COc1cc(Nc2c(C#N)cnc3cc(-n4cccc4)c(OC)cc23)c(Cl)cc1Cl` showed a melting point of 229 to 230 °C. Take `COC(=O)Cc1ccccc1OCc1cc(OCCc2nc(-c3ccccc3)sc2C)no1`: the melting point fell in the range of 80 to 81 °C. The value for `CCCN(CCC)C(=O)CCC(=O)O` was 35 to 37 °C; that for `CC[Si](CC)(CC)c1ccc2c(c1)cc(C(=O)Nc1ccc(N3CCC3)nc1)n2Cc1cccc(F)c1` was 166 to 168 °C. For `COc1ccc(-c2nc(-c3ccc4c(c3)OCO4)c(-c3ccc4c(c3)OCO4)[nH]2)c(OC)c1`, the melting point stood at 95 °C. In turn, `CC1(C)OC(=O)C(=Cc2ccc(Br)s2)C1=O` registered a melting point of 173 to 175 °C. The value for `CC(=O)c1ccc(Oc2ccc(C(C)=O)cc2)cc1` was 102 °C; that for `C=CC(=O)Oc1ccc(Cl)c2c(N(C)C)ncnc12` was 95 to 100 °C; that for `Cc1c(-c2ccccc2)n(-c2cccc(S(C)(=O)=O)c2)c(-c2ccccc2)cc1=O` was 246 to 248 °C. In the case of `c1ccc2cc(NC3=NCC4(CN5CCC4CC5)O3)ncc2c1` (stereo not given), the melting point lay in the range of 196 to 200 °C.

In turn, `CON(Cc1ccc(C(=O)OC(C)(C)C)cc1)C(=O)C1=C(O)C(=O)N(C)C1` had a melting point of 157 to 160 °C. `CCc1c2ccccc2nc2c1c(C)nn2-c1ccccn1` had a melting point of 112 to 114 °C. With `N#Cc1ccc2c(c1)Cc1cc(C#N)ccc1-2` the figure was 282 to 284 °C; with `COc1ccc(C(=O)Nc2ccccc2)cc1Nc1ccc(C)cc1`, 187 to 188 °C; with `Cc1nc(-c2nc(C)c(-c3ccnc(Nc4ccc(N5CCOCC5)cc4)n3)s2)cs1`, 262 to 263 °C. Take `O=C[C@H](OCc1ccccc1)[C@@H](OCc1ccccc1)[C@H](OCc1ccccc1)[C@H](O)COCc1ccccc1`: the melting point stood at 151 °C. With `CS(=O)(=O)OC[C@@H](O)COc1ccc(C#N)cc1` the figure was 119 to 121 °C; with `CCCOc1ccccc1-c1nc2[nH]c(=O)nnc2c(=O)[nH]1`, 298 to 299 °C; with `COC(=O)c1ccc(Oc2c(-c3ccc(OCc4ccccc4)cc3)c(C(F)(F)F)cc3ccccc23)cc1`, 131 to 132 °C. With `NC(=O)Nc1c(C(=O)c2ccccc2)[nH]c2cc(Cl)ccc12` the figure was 196 to 200 °C. With `c1cncc(-n2cnnn2)c1` the figure was 74 to 76 °C; with `C=CCOC1CCC2C3CCC4CC(=O)CCC4(C)C3CCC12C` (stereo not given), 122 to 124 °C. As to `C=C=COc1ccc2ccc(OC=C=C)cc2c1`, the melting point was 80.5 to 83.5 °C.

As to `CCOc1cc(C(=CC#N)c2ccc(OC)c(F)c2)ccc1OC`, the melting point fell in the range of 122 to 124 °C. The value for `CNC(=O)c1cc(SC)cc(N)n1` was 89 to 91 °C.

Consider `CC#CCOc1ccc(C(=O)NC[C@@H](C(=O)NO)N2CCN(S(C)(=O)=O)CC2)cc1`, for which the melting point amounted to 127 °C.

`CCCc1ccccc1OCCCOc1ccc2c(=O)cc(C(=O)O)oc2c1` had a melting point of 164 to 166 °C. Take `CCS(=O)(=O)c1cc(C(=O)NCC2CCCN2CC2CCC2)c(OC)cc1N` (stereo not given): the melting point stood at 170 °C. With `Cn1c2ccc(Cl)cc2c(=O)n2nc(C#N)cc12` the figure was 350 °C.

The values above are taken from a melting point compilation (Tetko et al.; mined from patent text by program, amines drawn as free bases though some values may be those of a salt).
